Laboratory results as given in the NIST ThermoML archive (doi:10.1021/je900293j).
Numbers after ± are expanded uncertainties.

Conditions: Transpiration method

Compound	vapor or sublimation pressure (283.15 K, Crystal)	vapor or sublimation pressure (293.15 K, Liquid)	vapor or sublimation pressure (303.15 K, Liquid)	vapor or sublimation pressure (313.15 K, Liquid)	vapor or sublimation pressure (283.15 K, Liquid)	vapor or sublimation pressure (293.15 K, Crystal)	vapor or sublimation pressure (303.15 K, Crystal)	vapor or sublimation pressure (313.15 K, Crystal)
Cc1cccc([N+](=O)[O-])c1 [3-nitrotoluene]	0.00339 ± 0.00049 kPa	0.00855 ± 0.0012 kPa	0.0195 ± 0.0028 kPa	0.0378 ± 0.0055 kPa	–	–	–	–
CCCCCCCCCCCCCC [tetradecane]	–	0.00121 ± 5e-05 kPa	0.00322 ± 0.00013 kPa	0.0081 ± 0.00031 kPa	0.000427 ± 1.7e-05 kPa	–	–	–
Cc1ccc([N+](=O)[O-])cc1 [1-methyl-4-nitrobenzene]	0.00125 ± 0.00018 kPa	–	–	–	–	0.00379 ± 0.00055 kPa	0.0102 ± 0.0015 kPa	0.0264 ± 0.0038 kPa
Cc1ccccc1[N+](=O)[O-] [2-nitrotoluene]	–	0.0127 ± 0.0018 kPa	0.0297 ± 0.0043 kPa	0.0611 ± 0.0088 kPa	0.00553 ± 0.0008 kPa	–	–	–
